The target of test [1] is Kir1.1 (ROMK1) (Homo sapiens (Human), UniProt P48048). The test can be described thus: Electrophysiology Assay (whole cell voltage clamp, IonWorks Quattro). Type of test: cell-based. The following applies: Chinese hamster ovary cells stably expressing Kir1.1; block during voltage step to 0 mV. The procedure:
Block of Kir1.1 (ROMK1) currents was examined by whole cell voltage clamp (Hamill et. al. […] Prior to an experiment, Kir1.1 expression was induced by overnight incubation with 1 mM sodium butyrate. […] After centrifugation, the cell pellet was resuspended in approximately 4.0 mL of bath solution and placed in the IonWorks instrument. The intracellular solution consisted of (in mM): 80 K gluconate, 40 KCl, 20 KF, 3.2 MgCl2, 3 EGTA, 5 Hepes, pH 7.4. […] Amphotericin B (Sigma A-4888) was prepared as a 40 mg/mL solution in DMSO. Voltage protocols and current recordings were performed using the IonWorks HT software/hardware system. […] No correction for liquid junction potentials was used. The test pulse, consisting of a 100 ms step to 0 mV from a holding potential of −70 mV, followed by a 100 ms voltage ramp from −70 mV to +70 mV, was applied before and after a 6 min compound incubation period. Test compounds were prepared by diluting DMSO stock solutions into the bath solution at 3× the final concentration and placed in the instrument in 96-well polypropylene plates. Current amplitudes were measured using the IonWorks software. To assess compound potency, the fractional block during the voltage step to 0 mV was calculated in Microsoft Excel (Microsoft, Redmond, Calif.), and dose-response curves were fitted with Igor Pro 4.0 (WaveMetrics, Lake Oswego, Oreg.).
In general terms: The patch-clamp technique gives a direct electrical read-out from membranes.

Test [2] addresses hROMK (hKir1.1) (Homo sapiens (Human), UniProt P48048). Description: Thallium Flux Assay (ROMK channel functional thallium flux, FLIPR-Tetra). Format: cell-based. The note with it: HEK293 cells stably expressing hROMK (hKir1.1). The procedure:
HEK293 cells stably expressing hROMK (hKir1.1) were grown at 37° C. in a 10% CO2 humidified incubator in complete growth media: Dulbecco's Modified Eagle Medium supplemented with non-essential amino acids, Penicillin/Streptomycin/Glutamine, G418 and FBS. At >80% confluency, aspirate the media from the flask and rinse with 10 mL Calcium/Magnesium-free PBS. Add 5 mL of 1× trypsin (prepared in Ca/Mg Free PBS) to T-225 flask and return flask to 37° C./CO2 incubator for 2-3 minutes. To dislodge the cell, gently bang the side of the flask with your hand. Triturate the cells completely and then transfer the cells to 25 mL complete media. Centrifuge at 1,500 rpm for 6 min followed by resuspension in complete growth media and determine cell concentration. For typical re-seeding, 4E6 cells/T-225 flask will attain>80% confluency in 4 days. Under ideal growth conditions and appropriate tissue culture practices, this cell line is stable for 40-45 passages.
• FluxOR™ Reagent (Component A) • FluxOR™ Assay Buffer (Component B)—10× Concentrate • PowerLoad™ Concentrate (Component C)—100× Concentrate • Probenecid (Component D)—Lyophilized sample is kept at −20° C. Water soluble, 100× after solubilization in 1 mL water. Store at 4° C. • FluxOR™ Chloride-free Buffer (Component E)—5× Concentrate • Potassium sulfate (K2SO4) Concentrate (Component F)—125 mM in water. Store at 4° C. • Thallium sulfate (Tl2SO4) Concentrate (Component G)—50 mM in water. Store at 4° C. • DMSO (dimethyl sulfoxide, Component H)—1 mL (100%) Reagent Preparation: FluxOR Working Solutions • 1000× FluxOR™ Reagent: Reconstitute a vial of component A in 100 μl DMSO; Mix well; Store 10 μl aliquots at −20° C. • 1× FluxOR™ Assay Buffer: Dilute Component B 10-fold with water; Adjust pH to 7.4 with Hepes/NaOH; Filter and store at 4° C. • Probenecid/Assay Buffer: 100 mL of 1× FluxOR™ Assay Buffer; 1 mL of reconstituted component D; Store at 4° C. • Loading Buffer (per microplate): 10 μl 1000× FluxOR™ Reagent; 100 μl component C; 10 mL Probenecid/Assay Buffer • Compound Buffer (per microplate): 20 mL Probenecid/Assay Buffer; 0.3 mM ouabain (10 mM ouabain in water can be stored in amber bottle/aluminum foil at room temperature); Test compound • 1× FluxOR™ Chloride-Free Buffer: Prepare 1× working solution in water. Can be stored at room temperature • Stimulant Buffer (prepared at 5× final concentration in 1× FluxOR™ Chloride-Free Buffer): 7.5 mM Thallium sulfate and 0.75 mM Potassium sulfate (to give a final assay concentration of 3 mM Thallium/0.3 mM Potassium). Store at 4° C. when not in use. If kept sterile, this solution is good for months. Assay Protocol—
The ROMK channel functional thallium flux assay is performed in 384 wells, using the FLIPR-Tetra instrument. HEK-hKir1.1 cells are seeded in Poly-D-Lysine microplates and kept in a 37° C.-10% CO2 incubator overnight. On the day of the experiment, the growth media is replaced with the FluxOR™ reagent loading buffer and incubated, protected from light, at ambient temperature (23-25° C.) for 90 min. The loading buffer is replaced with assay buffer±test compound followed by 30 min incubation at ambient temperature, where the Thallium/Potassium stimulant is added to the microplate.
• 1. Seed HEK-hKir1.1 cells (50 μl at 20,000 cells/well) in 384-well PDL coated Microplates • 2. Allow cells to adhere overnight in humidified 37° C./10% CO2 incubator • 3. Completely remove cell growth media from microplate and replace with 25 μl loading buffer • 4. Incubate Microplate at room temperature, protected form light, for 90 min • 5. Remove loading buffer and replace with 25 μl 1× Assay Buffer±test compound. • 6. Incubate microplate at room temperature, protected form light, for 30 min • 7. At FLIPR-Tetra 384: Add stimulant (Thallium/Potassium) solution to microplate and monitor fluorescence. Excitation=400 nm, Emission=460 & 580 nm. Collect data for ˜10 min. Data Calculation—

Usually IC50 stands for the concentration that inhibits the measured activity by half. A high value points to weaker potency.

Chain of Kir1.1 (ROMK1) (P48048 whole entry): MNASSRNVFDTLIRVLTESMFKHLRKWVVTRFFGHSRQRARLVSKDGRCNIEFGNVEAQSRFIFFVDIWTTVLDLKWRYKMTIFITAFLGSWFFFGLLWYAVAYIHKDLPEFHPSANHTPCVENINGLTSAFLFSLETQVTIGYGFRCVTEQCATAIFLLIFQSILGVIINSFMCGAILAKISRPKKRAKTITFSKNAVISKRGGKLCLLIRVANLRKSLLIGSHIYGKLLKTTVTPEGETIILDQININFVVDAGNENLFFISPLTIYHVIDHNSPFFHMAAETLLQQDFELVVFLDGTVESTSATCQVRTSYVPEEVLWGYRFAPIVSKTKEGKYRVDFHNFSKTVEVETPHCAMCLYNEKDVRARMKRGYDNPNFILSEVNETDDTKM
Chain of hROMK (hKir1.1) (P48048 whole entry): as above

As for `COc1cc([C@@H]2CN3CCN(C(=O)C4CCc5nc(-n6cnnn6)ccc54)C[C@@H]3CO2)ccc1C#N` (some centres unmarked) [Example 63], the IC50 in test [1] was determined as 270 nM; in test [2], 740 nM.

Take `N#Cc1c(F)ccc([C@@H]2CN3CCN(C(=O)C4CCc5nc(-n6cnnn6)ccc54)C[C@@H]3CO2)c1Cl` (some centres unmarked) [Example 64]: the half-inhibitory concentration (IC50) is 100 nM in test [1] and 120 nM in test [2].

Take `N#Cc1c(F)ccc([C@@H]2CN3CCN(C(=O)C4CCc5nc(-n6cnnn6)ccc54)C[C@@H]3CO2)c1Cl` (some centres unmarked) [Example 65]: the IC50 in test [1] was found to be 140 nM; in test [2], 340 nM.

In the case of `N#Cc1cc([C@@H]2CN3CCN(C(=O)C4CCc5cc(-n6cnnn6)ncc54)C[C@H]3CO2)c(F)cc1F` (some centres unmarked) [Example 68], the IC50 in test [1] and in test [2] was 200 nM each time.

Consider `COc1c([C@@H]2CN3CCN(C(=O)C4CCc5cc(-n6cnnn6)ncc54)C[C@H]3CO2)ccc(C#N)c1F` (some centres unmarked) [Example 70], for which the values for the IC50 in test [1] and in test [2] were 100 nM and 500 nM, respectively.

`COc1ccc([C@H]2CN3CCN(C(=O)C4CCc5cc(-n6cnnn6)ncc54)C[C@@H]3CO2)c(C)c1C#N` (some centres unmarked) [Example 74]: the IC50 in test [1] amounted to 280 nM; in test [2] it was 500 nM.

As for `Cc1c([C@@H]2CN3CCN(C(=O)C4Cc5cnc(-n6cnnn6)nc5C4)C[C@@H]3CO2)ccc(F)c1C#N` (some centres unmarked) [Example 75], the figures for the IC50 in test [1] and in test [2] were 150 nM and 250 nM, respectively.

Consider `Cc1c([C@H]2CN3CCN(C(=O)C4Cc5cnc(-n6cnnn6)nc5C4)C[C@H]3CO2)ccc(F)c1C#N` (some centres unmarked) [Example 76], for which the concentration for half-maximal inhibition (IC50) was 130 nM in test [1] and 460 nM in test [2].

Consider `COc1cc(F)c([C@H]2CN3CCN(C(=O)C4CCc5nc(-n6cnnn6)ccc54)C[C@@H]3CO2)cc1C#N` (some centres unmarked) [Example 77], for which the IC50 in test [1] was determined as 290 nM; in test [2], 400 nM.

As for `N#Cc1cc([C@@H]2CN3CCN(C(=O)C4CCc5nc(-n6cnnn6)ncc54)C[C@H]3CO2)ccc1F` (some centres unmarked) [Example 79], the IC50 in test [1] was determined as 190 nM; in test [2], 210 nM.

Regarding `N#Cc1cc([C@@H]2CN3CCN(C(=O)C4CCc5nc(-n6cnnn6)ncc54)C[C@@H]3CO2)ccc1F` (some centres unmarked) [Example 80], the figures for the half-inhibitory concentration (IC50) in test [1] and in test [2] were 120 nM and 260 nM, respectively.

On to `N#Cc1c(F)ccc([C@@H]2CN3CCN(C(=O)C4CCc5nc(-n6cnnn6)ncc54)C[C@@H]3CO2)c1Cl` (some centres unmarked) [Example 81], for which the values for the IC50 in test [1] and in test [2] were 60 nM and 170 nM, respectively.

`N#Cc1c(F)ccc([C@@H]2CN3CCN(C(=O)C4CCc5nc(-n6cnnn6)ncc54)C[C@@H]3CO2)c1Cl` (some centres unmarked) [Example 82]: the IC50 in test [1] was 50 nM; in test [2], 140 nM.

For `N#Cc1c(F)ccc([C@H]2CN3CCN(C(=O)C4CCc5nc(-n6cnnn6)ncc54)C[C@@H]3CO2)c1Cl` (some centres unmarked) [Example 83], the concentration for half-maximal inhibition (IC50) was 80 nM in test [1] and 360 nM in test [2].

For `Cc1c([C@@H]2CN3CCN(C(=O)C4CCc5cc(-n6cnnn6)cnc54)C[C@@H]3CO2)ccc(F)c1C#N` (some centres unmarked) [Example 91], the half-inhibitory concentration (IC50) in test [1] came out at 140 nM; in test [2] it was 550 nM.

Regarding `Cc1c([C@H]2CN3CCN(C(=O)C4CCc5cc(-n6cnnn6)ncc54)C[C@H]3CO2)ccc(C#N)c1F` (some centres unmarked) [Example 93], the IC50 was determined as 180 nM in test [1] and 430 nM in test [2].

On to `Cc1c([C@H]2CN3CCN(C(=O)C4CCc5cc(-n6cnnn6)ncc54)C[C@H]3CN2)ccc(F)c1C#N` (some centres unmarked) [Example 97], for which the IC50 worked out at 90 nM in test [1] and 160 nM in test [2].

`Cc1c([C@@H]2CN3CCN(C(=O)C4CCc5nc(-n6cnnn6)ccc54)C[C@H]3CN2)ccc(F)c1C#N` (some centres unmarked) [Example 98]: the half-inhibitory concentration (IC50) in test [1] amounted to 170 nM; in test [2] it was 390 nM.

For the molecule `Cc1c([C@@H]2CN3CCN(C(=O)C4CCc5cc(-n6cnnn6)cnc54)C[C@H]3CN2)ccc(F)c1C#N` (some centres unmarked) [Example 99], the figures for the IC50 in test [1] and in test [2] were 350 nM and 430 nM, respectively.

On to `Cc1c([C@@H]2CN3CCN(C(=O)C4CCc5cc(-n6cnnn6)cnc54)C[C@H]3CN2)ccc(F)c1C#N` (some centres unmarked) [Example 100], for which the half-inhibitory concentration (IC50) in test [1] was 280 nM; in test [2], 750 nM.

As to `Cc1c([C@H]2CN3CCN(C(=O)C4CCc5nc(-n6cnnn6)ncc54)C[C@H]3CN2)ccc(F)c1C#N` (some centres unmarked) [Example 102], the half-maximal inhibitory concentration (IC50) in test [1] worked out at 100 nM; in test [2], 450 nM.

Regarding `Cc1c([C@H]2CN3CCN(C(=O)C4CCc5cc(-n6cnnn6)ncc54)C[C@@H]3CN2)ccc(F)c1C#N` (some centres unmarked) [Example 103], the 50% inhibitory concentration (IC50) in test [1] was found to be 110 nM; in test [2], 180 nM.

On to `Cc1c([C@H]2CN3CCN(C(=O)C4CCc5cc(-n6cnnn6)ncc54)C[C@@H]3CN2)ccc(F)c1C#N` (some centres unmarked) [Example 104], for which the values for the 50% inhibitory concentration (IC50) in test [1] and in test [2] were 120 nM and 360 nM, respectively.

In the case of `Cc1c([C@@H]2CN3CCN(C(=O)C4CCc5cc(-n6cnnn6)ncc54)C[C@@H]3CN2)ccc(F)c1C#N` (some centres unmarked) [Example 105], the results for the IC50 in test [1] and in test [2] were 80 nM and 140 nM, respectively.

Turning to `Cc1c([C@@H]2CN3CCN(C(=O)C4CCc5cc(-n6cnnn6)ncc54)C[C@@H]3CN2)ccc(F)c1C#N` (some centres unmarked) [Example 106], the IC50 in test [1] worked out at 120 nM; in test [2], 400 nM.

(Values after US9062070B2, “Inhibitors of the renal outer medullary potassium channel” (Merck Sharp & Dohme Corp., priority 2011, dated 2015).)
